# Results as given in US8669267B2, “Pharmaceutical, food or beverage having inhibitory activity on serotonin transporter” (Suntory Holdings Limited, priority 2008, dated 2014).
# What was measured:
# [1] = test system: uptake of serotonin in the brain; conditions: cited from earlier work
# monoamine oxidase A = biological target: T1, monoamine oxidase A (Homo sapiens, UniProt P21397); conditions: cited from earlier work
# T1 sequence (P21397 1-527): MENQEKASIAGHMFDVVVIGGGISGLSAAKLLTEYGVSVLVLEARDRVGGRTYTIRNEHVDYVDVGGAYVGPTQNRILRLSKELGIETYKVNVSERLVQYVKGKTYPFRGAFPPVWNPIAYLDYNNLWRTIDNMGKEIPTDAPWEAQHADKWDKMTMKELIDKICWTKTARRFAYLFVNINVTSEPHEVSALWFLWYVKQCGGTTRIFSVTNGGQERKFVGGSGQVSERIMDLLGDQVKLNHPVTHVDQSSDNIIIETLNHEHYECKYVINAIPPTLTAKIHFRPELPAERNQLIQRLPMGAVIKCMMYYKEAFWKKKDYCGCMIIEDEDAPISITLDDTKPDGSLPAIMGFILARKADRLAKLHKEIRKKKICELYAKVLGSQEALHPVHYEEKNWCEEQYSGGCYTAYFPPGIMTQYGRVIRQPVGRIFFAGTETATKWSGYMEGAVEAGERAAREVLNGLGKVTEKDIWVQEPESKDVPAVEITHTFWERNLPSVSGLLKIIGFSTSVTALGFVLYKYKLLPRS
# rats = conditions: forced-swimming tests using rats; cited from earlier work
# [2] = biological target: T2, human serotonin transporter (Homo sapiens, UniProt P31645); experiment: [3H] imipramine binding to cell homogenate of CHO cells expressing human serotonin transporter; conditions: 100 μg/mL (1S,3S)-MTCA sample; 2 nM [3H] imipramine; 22° C. for 60 minutes; control = 100
# T2 construct: expressed in transfected cells; host or cells: CHO cells, vector pRc/CMV, calcium phosphate transfection
# Method: A commercially-available (1S,3S)-2,3,4,9-tetrahydro-1-methyl-1H-pyrido[3,4-b]-indole-3-carboxylic acid reagent (manufactured by Wako Pure Chemical Industries, Ltd.) was used as a subject substance ((1S,3S)-MTCA), and the inhibitory effect of (1S,3S)-MTCA on serotonin transporters was determined using a method described in Masahiko T, et al: European Journal of Pharmacology 368 277-283, 1999.
# CHO cells were transfected with a secretory vector pRc/CMV, in which cDNA of a human serotonin transporter was incorporated, by a calcium phosphate method. […]
# Then, the medium was removed by aspiration to prepare a cell homogenate. […] The concentration of protein in the resulting cell homogenate was measured by a Lowry method using bovine serum albumin (BSA) as a standard.
# Thereafter, 25 μL, of (1S,3S)-MTCA solution dissolved in physiological saline (100 μg/mL) and the solution 2 (225 μL) comprising 2 nM [^3H] imipramine were added to a 96-hole microplate, and the cell homogenate (amount of protein: 15 μg) obtained in (1) was added to the microplate, followed by incubation at 22° C. for 60 minutes. […] Non-specific binding of [^3H] imipramine to the cell homogenate was determined using 10 μM imipramine. […]
# γ-crystallin = conditions: cited from earlier work
# [3] = test system: C57BL/6N mice with motivation decreased through open-space swimming; experiment: Open-space swimming combined with Morris water maze test (escape-latency); format: in vivo
# Method: The subjects were […] male C57BL/6N mice that had never been subjected to any experiment. At the beginning of the experiment, an average age of the subjects was about 12 weeks old, and an average weight of the subjects was 24.9 g (SD=3.30). The subjects were housed in an acrylic cage in an animal house in which the room temperature was 23° C. and the humidity was 50 to 60%. The inside of the animal house was set such that a light is alternately turned on and off in a 12-hour cycle (light period: from 8:00 AM to 8:00 PM). This experiment was carried out every day at the same time period during the light period. As feedstuff, a dry solid feed (Labo MR manufactured by Nosan Corporation) was fed. The supply of neither feedstuff nor water was limited.
# The subjects were divided into 3 groups, and they were named noOS-Vehicle group (group of normal mice) (n=10), OS-(1S,3S)-MTCA-administered group (n=10), and OS-Vehicle group (group of mice having depression) (n=10), respectively.
# A circular pool with an inner diameter of 95 cm and a depth of 35 cm was used. The pool was surrounded by white partitions each having a height of 120 cm and a width of 150 cm. […] The place where the escape platform was located was a central part of one of the four evenly-divided fan-shaped quadrants (Quadrant 1 to 4) of a circular water surface, and was determined for each subject. […]
# T2 sequence (P31645 whole entry): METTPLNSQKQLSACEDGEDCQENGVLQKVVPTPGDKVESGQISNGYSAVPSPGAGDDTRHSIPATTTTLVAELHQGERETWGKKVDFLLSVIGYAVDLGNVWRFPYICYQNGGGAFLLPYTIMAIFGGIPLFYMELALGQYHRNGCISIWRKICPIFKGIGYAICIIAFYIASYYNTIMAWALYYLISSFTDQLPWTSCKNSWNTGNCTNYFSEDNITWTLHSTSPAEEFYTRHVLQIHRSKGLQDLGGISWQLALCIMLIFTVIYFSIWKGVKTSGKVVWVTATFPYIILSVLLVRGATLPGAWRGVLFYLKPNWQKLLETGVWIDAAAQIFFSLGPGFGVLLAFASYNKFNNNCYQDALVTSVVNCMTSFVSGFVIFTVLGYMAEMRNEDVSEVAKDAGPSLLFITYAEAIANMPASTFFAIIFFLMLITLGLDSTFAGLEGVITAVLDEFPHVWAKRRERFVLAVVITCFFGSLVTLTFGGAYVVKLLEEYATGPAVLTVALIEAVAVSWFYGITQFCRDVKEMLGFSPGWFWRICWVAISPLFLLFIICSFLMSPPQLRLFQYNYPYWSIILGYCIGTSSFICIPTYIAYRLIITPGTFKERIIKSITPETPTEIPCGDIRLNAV
Structure (SMILES),uptake of serotonin in the brain [1],activity of monoamine oxidase A (monoamine oxidase A),immobility time (rats),amount of [3H] imipramine that specifically bound to the cell homogenate (control was 100) [2],self-polymerization reaction of γ-crystallin (γ-crystallin; Fenton reaction using FeCl3),photopolymerization reaction of γ-crystallin (γ-crystallin),"average escape-latency (average of five trials) ([3]; Day 1 of administration, 20 mg/kg orally 60 minutes before training, open-space swimming treated mice, OS-Vehicle 52.6, noOS-Vehicle 44.1)","time taken to reach the escape platform compared with the OS-Vehicle group ([3]; continuous administration up to Day 10, 20 mg/kg orally every day, FIG. 3)"
"COc1ccc2[nH]c3c(c2c1)CCNC3 [pinoline, 6-methoxy-1,2,3,4-tetrahydro-β-carboline]",inhibits,inhibits,reduces,–,–,–,–,–
"C[C@@H]1N[C@H](C(=O)O)Cc2c1[nH]c1ccccc21 [(1S,3S)-MTCA, (1S,3S)-1-methyl-1,2,3,4-tetrahydro-β-carboline-3-carboxylic acid]",–,–,–,69,prevents,prevents,42.7 s,decreased significantly
